Columns and labels:
Glutathione reductase [1] = molecular target: T1, Glutathione reductase (Saccharomyces cerevisiae S288c, UniProt P41921); test: Inhibition of yeast glutathione reductase over 30 minutes pH 7.4 at 25 degree C
T1 sequence (P41921 whole entry): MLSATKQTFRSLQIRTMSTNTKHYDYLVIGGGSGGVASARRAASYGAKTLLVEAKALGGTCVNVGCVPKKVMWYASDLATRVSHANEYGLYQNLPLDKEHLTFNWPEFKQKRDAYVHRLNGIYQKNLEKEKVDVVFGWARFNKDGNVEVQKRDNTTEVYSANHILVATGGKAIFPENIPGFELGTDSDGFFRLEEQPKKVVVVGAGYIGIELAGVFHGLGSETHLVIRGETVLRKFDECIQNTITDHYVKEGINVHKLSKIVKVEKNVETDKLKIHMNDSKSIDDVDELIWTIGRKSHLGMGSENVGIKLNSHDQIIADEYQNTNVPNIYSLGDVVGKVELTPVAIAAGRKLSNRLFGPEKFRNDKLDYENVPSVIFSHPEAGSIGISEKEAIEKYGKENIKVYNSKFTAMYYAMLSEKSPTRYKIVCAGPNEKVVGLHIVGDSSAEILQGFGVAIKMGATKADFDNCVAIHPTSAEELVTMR

Glutathione reductase [2] = molecular target: T1, Glutathione reductase; test: Inhibition of yeast glutathione reductase for 30 minutes pH 7.4 at 25 degree C at 0.2 mM
Glutathione reductase [3] = molecular target: T1, Glutathione reductase; test: Inhibition of yeast glutathione reductase done for 30 minutes in pH 7.4 at 25 degree C with compound (0.2 mM)
[4] = molecular target: T2, Glutathione S-transferase A1 (Homo sapiens) (UniProt P08263); test: Inhibitory activity of compound against glutathione S-transferase; conditions: concentration not given here
T2 sequence (whole entry): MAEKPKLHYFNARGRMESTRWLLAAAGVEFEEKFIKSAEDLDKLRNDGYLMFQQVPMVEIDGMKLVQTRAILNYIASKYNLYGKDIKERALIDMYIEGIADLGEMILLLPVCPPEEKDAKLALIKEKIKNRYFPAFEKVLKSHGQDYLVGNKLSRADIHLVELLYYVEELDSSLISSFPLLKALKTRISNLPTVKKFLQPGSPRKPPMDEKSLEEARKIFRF

[5] = molecular target: T3, Glutathione reductase (Saccharomyces cerevisiae S288c) (UniProt P41921)
T3 sequence (whole entry): T1 sequence (P41921 whole entry)
Description: Kinact value for yeast glutathione reductase

SMILES	IC50 (Glutathione reductase [1])	further results
CC(=O)NC(CSC(=O)NC1CCC(CC2CCC(NC(=O)SCC(NC(C)=O)C(=O)O)CC2)CC1)C(=O)O (stereo unspecified)	477 µM	–
CC(=O)NC(CSC(=O)NCCCCNC(=O)SCC(NC(C)=O)C(=O)O)C(=O)O (stereo unspecified)	515 µM	–
CC(=O)NC(CSC(=O)NCc1ccc(NC(=O)SCC(NC(C)=O)C(=O)O)cc1)C(=O)O (stereo unspecified)	117 µM	–
CC(=O)NC(CSC(=O)Nc1ccc(NC(=O)SCC(NC(C)=O)C(=O)O)cc1)C(=O)O (stereo unspecified)	–	Ki (Glutathione reductase [2]): 88 µM; IC50 (Glutathione reductase [3]): 50 µM; inhibition [4]: 13%; Kinact [5]: 0.1 min⁻¹
CC(=O)NC(CSC(=O)Nc1ccc(Cc2ccc(NC(=O)SCC(NC(C)=O)C(=O)O)cc2)cc1)C(=O)O (stereo unspecified)	85 µM	–
CC(=O)NC(CSC(=O)Nc1cccc(NC(=O)SCC(NC(C)=O)C(=O)O)c1)C(=O)O (stereo unspecified)	149 µM	–
O=NN(CCCl)C(=O)NCCCl [CARMUSTINE]	441 µM	–
CC(=O)NC(CSC(=O)NCCCCCCNC(=O)SCC(NC(C)=O)C(=O)O)C(=O)O (stereo unspecified)	455 µM	–
